Measured values from ChEMBL document CHEMBL4385645, “Broad-spectrum antifungal activity of spirooxindolo-pyrrolidine tethered indole/imidazole hybrid heterocycles against fungal pathogens” (Bioorg Med Chem Lett, 2019).
≈ marks a conversion by molar mass, not a printed value. One block for each molecule: values may come before it. Calls of active or inactive are those of the source. The rule behind the calls is not given here.

Legend:
Candida albicans [1] = assay: Antifungal activity against Candida albicans assessed as reduction in fungal growth incubated for 24 hrs by broth microdilution method; type: functional
Candida albicans [2] = assay: Antifungal activity against Candida albicans NR-29439 assessed as reduction in fungal growth incubated for 24 hrs by broth microdilution method; type: functional; conditions: NR-29439, 24 h
Candida albicans [3] = assay: Antifungal activity against Candida albicans NR-29440 assessed as reduction in fungal growth incubated for 24 hrs by broth microdilution method; type: functional; conditions: NR-29440, 24 h
Candida albicans [4] = assay: Antifungal activity against Candida albicans NR-29367 assessed as reduction in fungal growth incubated for 24 hrs by broth microdilution method; type: functional; conditions: NR-29367, 24 h
Cryptococcus neoformans [5] = assay: Antifungal activity against Cryptococcus neoformans NR-41294 assessed as reduction in fungal growth incubated for 24 hrs by broth microdilution method; type: functional; conditions: NR-41294, 24 h
Candida albicans [6] = assay: Antifungal activity against Candida albicans NR5-29453 assessed as reduction in fungal growth incubated for 24 hrs by broth microdilution method; type: functional; conditions: NR5-29453, 24 h
Candida albicans [7] = assay: Antifungal activity against Candida albicans NR-29438 assessed as reduction in fungal growth incubated for 24 hrs by broth microdilution method; type: functional; conditions: NR-29438, 24 h
Candida albicans [8] = assay: Antifungal activity against Candida albicans NR-29434 assessed as reduction in fungal growth incubated for 24 hrs by broth microdilution method; type: functional; conditions: NR-29434, 24 h
Candida albicans [9] = assay: Antifungal activity against Candida albicans NR-29449 assessed as reduction in fungal growth incubated for 24 hrs by broth microdilution method; type: functional; conditions: NR-29449, 24 h
Candida albicans [10] = assay: Antifungal activity against Candida albicans NR-29435 assessed as reduction in fungal growth incubated for 24 hrs by broth microdilution method; type: functional; conditions: NR-29435, 24 h
Cryptococcus neoformans [11] = assay: Antifungal activity against Cryptococcus neoformans NR-41291 assessed as reduction in fungal growth incubated for 24 hrs by broth microdilution method; type: functional; conditions: NR-41291, 24 h
Cryptococcus neoformans [12] = assay: Antifungal activity against Cryptococcus neoformans NR-41296 assessed as reduction in fungal growth incubated for 24 hrs by broth microdilution method; type: functional; conditions: NR-41296, 24 h
Candida albicans [13] = assay: Antifungal activity against Candida albicans NR-29441 assessed as reduction in fungal growth incubated for 24 hrs by broth microdilution method; type: functional; conditions: NR-29441, 24 h
Candida albicans [14] = assay: Antifungal activity against Candida albicans NR-29448 assessed as reduction in fungal growth incubated for 24 hrs by broth microdilution method; type: functional; conditions: NR-29448, 24 h
Cryptococcus neoformans [15] = assay: Antifungal activity against Cryptococcus neoformans NR-41299 assessed as reduction in fungal growth incubated for 24 hrs by broth microdilution method; type: functional; conditions: NR-41299, 24 h
Cryptococcus neoformans [16] = assay: Antifungal activity against Cryptococcus neoformans NR-41295 assessed as reduction in fungal growth incubated for 24 hrs by broth microdilution method; type: functional; conditions: NR-41295, 24 h
Candida albicans [17] = assay: Antifungal activity against Candida albicans NR-29366 assessed as reduction in fungal growth incubated for 24 hrs by broth microdilution method; type: functional, organism-based
HCT-116 = assay: Cytotoxicity against human HCT116 cells assessed as reduction in cell viability at 2 to 128 ug/ml incubated for 24 hrs by MTS assay; type: cell-based; conditions: hct-116, 24 h
Candida albicans [18] = assay: Antifungal activity against Candida albicans ATCC 10231 assessed as reduction in fungal growth incubated for 24 hrs by broth microdilution method; type: functional; conditions: ATCC 10231, 24 h
Cryptococcus neoformans [19] = assay: Antifungal activity against Cryptococcus neoformans NR-41292 assessed as reduction in fungal growth incubated for 24 hrs by broth microdilution method; type: functional; conditions: NR-41292, 24 h
Candida albicans [20] = assay: Antifungal activity against Candida albicans assessed as reduction in hyphae formation and attachment at 32 to 64 ug/ml incubated for 12 hrs by crystal violet dye-based microscopic analysis; type: functional; parameters: scale not given: the % may be the effect or the level left
Candida albicans [21] = assay: Antifungal activity against Candida albicans NR-29444 assessed as reduction in fungal growth incubated for 24 hrs by broth microdilution method; type: functional; conditions: NR-29444, 24 h
Cryptococcus neoformans [22] = assay: Antifungal activity against Cryptococcus neoformans NR-41298 assessed as reduction in fungal growth incubated for 24 hrs by broth microdilution method; type: functional; conditions: NR-41298, 24 h
Candida albicans [23] = assay: Antifungal activity against Candida albicans NR-29442 assessed as reduction in fungal growth incubated for 24 hrs by broth microdilution method; type: functional; conditions: NR-29442, 24 h
Candida albicans [24] = assay: Inhibition of biofilm formation in Candida albicans assessed as reduction in metabolic activity at 32 and 64 ug/ml incubated for 48 hrs by MTS assay; type: functional
Candida albicans [25] = assay: Antifungal activity against Candida albicans NR-29446 assessed as reduction in fungal growth incubated for 24 hrs by broth microdilution method; type: functional; conditions: NR-29446, 24 h
Candida albicans [26] = assay: Antifungal activity against Candida albicans NR-29437 assessed as reduction in fungal growth incubated for 24 hrs by broth microdilution method; type: functional; conditions: NR-29437, 24 h
Cryptococcus neoformans [27] = assay: Antifungal activity against Cryptococcus neoformans NR-41297 assessed as reduction in fungal growth incubated for 24 hrs by broth microdilution method; type: functional; conditions: NR-41297, 24 h

Compound: O=C1Nc2ccc(OC(F)(F)F)cc2[C@@]12N[C@H](Cc1c[nH]cn1)[C@@H]([N+](=O)[O-])[C@@H]2c1cccc([N+](=O)[O-])c1
MIC (Candida albicans [1]): 32 µg/mL (≈ 61.7 µM)

Compound: O=C1Nc2ccccc2[C@@]12N[C@H](Cc1c[nH]cn1)[C@@H]([N+](=O)[O-])[C@@H]2c1ccc(Cl)cc1
MIC (Candida albicans [1]): 8 µg/mL (≈ 18.9 µM)

Compound: O=C1Nc2ccc(OC(F)(F)F)cc2[C@@]12N[C@H](Cc1c[nH]cn1)[C@@H]([N+](=O)[O-])[C@@H]2c1ccccc1Cl
MIC (Candida albicans [2]): 8 µg/mL (≈ 15.8 µM)
MIC (Candida albicans [3]): 16 µg/mL (≈ 31.5 µM)
MIC (Candida albicans [4]): 16 µg/mL (≈ 31.5 µM)
MIC (Cryptococcus neoformans [5]): 4 µg/mL (≈ 7.88 µM)
MIC (Candida albicans [6]): 16 µg/mL (≈ 31.5 µM)
MIC (Candida albicans [7]): 16 µg/mL (≈ 31.5 µM)
MIC (Candida albicans [8]): 16 µg/mL (≈ 31.5 µM)
MIC (Candida albicans [9]): 8 µg/mL (≈ 15.8 µM)
MIC (Candida albicans [10]): 8 µg/mL (≈ 15.8 µM)
MIC (Cryptococcus neoformans [11]): 16 µg/mL (≈ 31.5 µM)
MIC (Cryptococcus neoformans [12]): 16 µg/mL (≈ 31.5 µM)
MIC (Candida albicans [13]): 8 µg/mL (≈ 15.8 µM)
MIC (Candida albicans [14]): 4 µg/mL (≈ 7.88 µM)
MIC (Cryptococcus neoformans [15]): 16 µg/mL (≈ 31.5 µM)
MIC (Cryptococcus neoformans [16]): 16 µg/mL (≈ 31.5 µM)
inhibition (Candida albicans [17]): Active
Activity (HCT-116): Non-Toxic
MIC (Candida albicans [18]): 8 µg/mL (≈ 15.8 µM)
MIC (Cryptococcus neoformans [19]): 16 µg/mL (≈ 31.5 µM)
Activity (Candida albicans [20]): 30 - 40%
MIC (Candida albicans [21]): 16 µg/mL (≈ 31.5 µM)
MIC (Cryptococcus neoformans [22]): 8 µg/mL (≈ 15.8 µM)
MIC (Candida albicans [23]): 8 µg/mL (≈ 15.8 µM)
inhibition (INH) (Candida albicans [24]): <=25%
MIC (Candida albicans [25]): 4 µg/mL (≈ 7.88 µM)
MIC (Candida albicans [26]): 16 µg/mL (≈ 31.5 µM)
MIC (Cryptococcus neoformans [27]): 16 µg/mL (≈ 31.5 µM)
MIC (Candida albicans [1]): 4 µg/mL (≈ 7.88 µM)

Compound: O=C1Nc2ccc(OC(F)(F)F)cc2[C@@]12N[C@H](Cc1c[nH]cn1)[C@@H]([N+](=O)[O-])[C@@H]2c1ccc(Cl)cc1
MIC (Candida albicans [1]): 8 µg/mL (≈ 15.8 µM)

Compound: O=C1Nc2ccc(OC(F)(F)F)cc2[C@@]12N[C@H](Cc1c[nH]c3ccccc13)[C@@H]([N+](=O)[O-])[C@@H]2c1ccc(Cl)cc1
MIC (Candida albicans [1]): 16 µg/mL (≈ 28.7 µM)

Compound: O=C1Nc2ccccc2[C@@]12N[C@H](Cc1c[nH]c3ccccc13)[C@@H]([N+](=O)[O-])[C@@H]2c1ccccc1Cl
MIC (Candida albicans [1]): 32 µg/mL (≈ 67.7 µM)

Compound: O=C1Nc2ccccc2[C@@]12N[C@H](Cc1c[nH]c3ccccc13)[C@@H]([N+](=O)[O-])[C@@H]2c1ccccc1
MIC (Candida albicans [1]): 64 µg/mL (≈ 146 µM)

Compound: O=C1Nc2ccccc2[C@@]12N[C@H](Cc1c[nH]cn1)[C@@H]([N+](=O)[O-])[C@@H]2c1ccc(Br)cc1
MIC (Candida albicans [1]): 16 µg/mL (≈ 34.2 µM)

Compound: O=C1Nc2ccccc2[C@@]12N[C@H](Cc1c[nH]c3ccccc13)[C@@H]([N+](=O)[O-])[C@@H]2c1ccc(Cl)cc1
MIC (Candida albicans [1]): 16 µg/mL (≈ 33.8 µM)

Compound: Cc1ccc([C@H]2[C@H]([N+](=O)[O-])[C@@H](Cc3c[nH]cn3)N[C@]23C(=O)Nc2ccc(OC(F)(F)F)cc23)cc1
MIC (Candida albicans [1]): 16 µg/mL (≈ 32.8 µM)

Compound: O=C1Nc2ccc(OC(F)(F)F)cc2[C@@]12N[C@H](Cc1c[nH]c3ccccc13)[C@@H]([N+](=O)[O-])[C@@H]2c1cccc([N+](=O)[O-])c1
MIC (Candida albicans [1]): 16 µg/mL (≈ 28.2 µM)

Compound: Cc1ccc([C@H]2[C@H]([N+](=O)[O-])[C@@H](Cc3c[nH]c4ccccc34)N[C@]23C(=O)Nc2ccccc23)cc1
MIC (Candida albicans [1]): 128 µg/mL (≈ 283 µM)

Compound: COc1ccc([C@H]2[C@H]([N+](=O)[O-])[C@@H](Cc3c[nH]c4ccccc34)N[C@]23C(=O)Nc2ccccc23)cc1
MIC (Candida albicans [1]): 16 µg/mL (≈ 34.2 µM)

Compound: O=C1Nc2ccccc2[C@@]12N[C@H](Cc1c[nH]c3ccccc13)[C@@H]([N+](=O)[O-])[C@@H]2c1cccc([N+](=O)[O-])c1
MIC (Candida albicans [1]): 8 µg/mL (≈ 16.5 µM)

Compound: O=C1Nc2ccc(OC(F)(F)F)cc2[C@@]12N[C@H](Cc1c[nH]c3ccccc13)[C@@H]([N+](=O)[O-])[C@@H]2c1ccc(Br)cc1
MIC (Candida albicans [1]): 8 µg/mL (≈ 13.3 µM)

Compound: O=C1Nc2ccc(OC(F)(F)F)cc2[C@@]12N[C@H](Cc1c[nH]c3ccccc13)[C@@H]([N+](=O)[O-])[C@@H]2c1ccccc1Cl
MIC (Candida albicans [1]): 16 µg/mL (≈ 28.7 µM)

Compound: COc1ccc([C@H]2[C@H]([N+](=O)[O-])[C@@H](Cc3c[nH]cn3)N[C@]23C(=O)Nc2ccc(OC(F)(F)F)cc23)cc1
MIC (Candida albicans [1]): 32 µg/mL (≈ 63.6 µM)

Compound: O=C1Nc2ccccc2[C@@]12N[C@H](Cc1c[nH]cn1)[C@@H]([N+](=O)[O-])[C@@H]2c1ccccc1Cl
MIC (Candida albicans [1]): 8 µg/mL (≈ 18.9 µM)

Compound: COc1ccc([C@H]2[C@H]([N+](=O)[O-])[C@@H](Cc3c[nH]c4ccccc34)N[C@]23C(=O)Nc2ccc(OC(F)(F)F)cc23)cc1
MIC (Candida albicans [1]): 16 µg/mL (≈ 29 µM)

More lines, in order of falling MIC (Candida albicans [1]), values ahead:

MIC (Candida albicans [1]): 64 µg/mL (≈ 124 µM)
Compound: O=C1Nc2ccccc2[C@@]12N[C@H](Cc1c[nH]c3ccccc13)[C@@H]([N+](=O)[O-])[C@@H]2c1ccc(Br)cc1

MIC (Candida albicans [1]): 64 µg/mL (≈ 159 µM)
Compound: Cc1ccc([C@H]2[C@H]([N+](=O)[O-])[C@@H](Cc3c[nH]cn3)N[C@]23C(=O)Nc2ccccc23)cc1

MIC (Candida albicans [1]): 32 µg/mL (≈ 76.3 µM)
Compound: COc1ccc([C@H]2[C@H]([N+](=O)[O-])[C@@H](Cc3c[nH]cn3)N[C@]23C(=O)Nc2ccccc23)cc1

MIC (Candida albicans [1]): 32 µg/mL (≈ 67.6 µM)
Compound: O=C1Nc2ccc(OC(F)(F)F)cc2[C@@]12N[C@H](Cc1c[nH]cn1)[C@@H]([N+](=O)[O-])[C@@H]2c1ccccc1

MIC (Candida albicans [1]): 32 µg/mL (≈ 59.6 µM)
Compound: Cc1ccc([C@H]2[C@H]([N+](=O)[O-])[C@@H](Cc3c[nH]c4ccccc34)N[C@]23C(=O)Nc2ccc(OC(F)(F)F)cc23)cc1

MIC (Candida albicans [1]): 16 µg/mL (≈ 41.1 µM)
Compound: O=C1Nc2ccccc2[C@@]12N[C@H](Cc1c[nH]cn1)[C@@H]([N+](=O)[O-])[C@@H]2c1ccccc1

MIC (Candida albicans [1]): 16 µg/mL (≈ 36.8 µM)
Compound: O=C1Nc2ccccc2[C@@]12N[C@H](Cc1c[nH]cn1)[C@@H]([N+](=O)[O-])[C@@H]2c1cccc([N+](=O)[O-])c1

MIC (Candida albicans [1]): 8 µg/mL (≈ 14.5 µM)
Compound: O=C1Nc2ccc(OC(F)(F)F)cc2[C@@]12N[C@H](Cc1c[nH]cn1)[C@@H]([N+](=O)[O-])[C@@H]2c1ccc(Br)cc1

MIC (Candida albicans [1]): 8 µg/mL (≈ 15.3 µM)
Compound: O=C1Nc2ccc(OC(F)(F)F)cc2[C@@]12N[C@H](Cc1c[nH]c3ccccc13)[C@@H]([N+](=O)[O-])[C@@H]2c1ccccc1
